molecular target: ASK1 kinase (Homo sapiens (Human), UniProt Q99683); test: RBC Kinase Assay (33P-ATP radiometric, myelin basic protein substrate); type: biochemical; details: 20 ng ASK1 kinase, MBP substrate, 120 min at room temperature, 1% DMSO
How it was run: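 Radiometric filter-binding assay: 20 ng ASK1 with myelin basic protein in 20 mM Hepes pH 7.5, 10 mM MgCl2, 1 mM EGTA, 2 mM DTT, 1% DMSO; started with 33P-ATP, 120 min at room temperature. Reactions spotted on P81 paper, acid-washed, radioactivity counted; IC50 determined.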

Chain of ASK1 kinase (Q99683 whole entry): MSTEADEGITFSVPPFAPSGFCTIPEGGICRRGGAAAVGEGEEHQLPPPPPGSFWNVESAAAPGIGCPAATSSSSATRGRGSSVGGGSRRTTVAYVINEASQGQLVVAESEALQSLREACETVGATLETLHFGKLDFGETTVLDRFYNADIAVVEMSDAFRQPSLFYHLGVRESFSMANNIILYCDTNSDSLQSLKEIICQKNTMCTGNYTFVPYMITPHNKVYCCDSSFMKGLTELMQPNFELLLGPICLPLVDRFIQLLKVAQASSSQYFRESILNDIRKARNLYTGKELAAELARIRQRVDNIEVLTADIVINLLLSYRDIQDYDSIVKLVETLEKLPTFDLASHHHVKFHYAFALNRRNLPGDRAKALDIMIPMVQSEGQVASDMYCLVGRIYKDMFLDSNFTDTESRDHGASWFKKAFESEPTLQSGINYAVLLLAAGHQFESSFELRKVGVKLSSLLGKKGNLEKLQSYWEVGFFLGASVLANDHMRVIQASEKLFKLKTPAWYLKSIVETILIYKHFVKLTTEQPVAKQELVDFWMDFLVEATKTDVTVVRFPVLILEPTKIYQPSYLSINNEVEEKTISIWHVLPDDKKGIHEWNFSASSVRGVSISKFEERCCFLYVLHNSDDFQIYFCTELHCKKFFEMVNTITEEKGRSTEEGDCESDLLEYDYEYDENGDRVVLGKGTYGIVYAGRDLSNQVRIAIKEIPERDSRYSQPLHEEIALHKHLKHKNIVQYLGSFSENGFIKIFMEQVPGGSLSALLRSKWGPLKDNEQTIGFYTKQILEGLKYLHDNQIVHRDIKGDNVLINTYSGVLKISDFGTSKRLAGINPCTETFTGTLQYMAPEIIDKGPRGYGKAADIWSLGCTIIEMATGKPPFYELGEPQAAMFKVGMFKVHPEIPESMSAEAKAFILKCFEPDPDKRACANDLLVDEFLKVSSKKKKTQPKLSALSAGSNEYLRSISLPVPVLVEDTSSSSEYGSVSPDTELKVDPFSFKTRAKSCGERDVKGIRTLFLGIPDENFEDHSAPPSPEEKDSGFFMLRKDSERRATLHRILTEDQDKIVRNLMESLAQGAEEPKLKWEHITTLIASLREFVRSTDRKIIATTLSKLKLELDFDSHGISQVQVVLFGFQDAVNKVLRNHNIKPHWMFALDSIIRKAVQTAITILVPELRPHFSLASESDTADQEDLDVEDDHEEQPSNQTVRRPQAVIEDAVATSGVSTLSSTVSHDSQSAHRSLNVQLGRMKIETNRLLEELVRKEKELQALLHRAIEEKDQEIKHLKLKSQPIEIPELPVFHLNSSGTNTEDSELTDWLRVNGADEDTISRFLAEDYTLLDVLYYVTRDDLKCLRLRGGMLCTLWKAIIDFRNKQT

SMILES	IC50 [nM]
Cc1cc(F)c(C(=O)Nc2cccc3c2OC2(CCC2)Cn2nnnc2-3)cc1-n1cnc(C2CC2)c1 [Example 72, 5-(4-cyclopropyl-1H-imidazol-1-yl)-2-fluoro-4-methyl-N-(5H-spiro[benzo[f]tetrazolo[1,5-d][1,4]oxazepine-6,1′-cyclobutan]-8-yl)benzamide]	11.6
O=C(Nc1cccc2c1OC[C@@H](CF)n1nnnc1-2)c1cc(-n2cnc(C3CC3)c2)ccn1 [Example 31, (S)-4-(4-cyclopropyl-1H-imidazol-1-yl)-N-(5-(fluoromethyl)-5,6-dihydrobenzo[f]tetrazolo[1,5-d][1,4]oxazepin-8-yl)picolinamide]	5.7
O=C(Nc1cccc2c1OCCn1cnnc1-2)c1cc(-n2cnc(C3CC3)c2)c(N2CCOCC2)cn1 [Example 44, 4-(4-cyclopropyl-1H-imidazol-1-yl)-N-(5,6-dihydrobenzo[f][1,2,4]triazolo[4,3-d][1,4]oxazepin-8-yl)-5-morpholinopicolinamide]	15.6
C[C@H]1COc2c(NC(=O)c3cc(-n4cnc(C5CC5)c4)c(N4CC[C@@H](O)C4)cn3)cccc2-c2nnnn21 [Example 78, 4-(4-cyclopropyl-1H-imidazol-1-yl)-5-((R)-3-hydroxypyrrolidin-1-yl)-N—((S)-5-methyl-5,6-dihydrobenzo[f]tetrazolo[1,5-d][1,4]oxazepin-8-yl)picolinamide]	4.7
O=C(Nc1cccc2c1OC[C@@H](CO)n1nnnc1-2)c1cc(-n2cnc(C3CC3)c2)ccn1 [Example 18, (R)-4-(4-cyclopropyl-1H-imidazol-1-yl)-N-(5-(hydroxymethyl)-5,6-dihydrobenzo[f]tetrazolo[1,5-d][1,4]oxazepin-8-yl)picolinamide]	11.6
Cc1cc(F)c(C(=O)Nc2cccc3c2OC[C@@H](C2CC2)n2cnnc2-3)cc1-n1cnc(C2CC2)c1 [Example 8, (R)-5-(4-cyclopropyl-1H-imidazol-1-yl)-N-(5-cyclopropyl-5,6-dihydrobenzo[f][1,2,4]triazolo[4,3-d][1,4]oxazepin-8-yl)-2-fluoro-4-methylbenzamide]	11.7
Cc1cc(F)c(C(=O)Nc2cccc3c2OC[C@@H](CO)n2nnnc2-3)cc1-n1cnc(C2CC2)c1 [Example 17, (R)-5-(4-cyclopropyl-1H-imidazol-1-yl)-2-fluoro-N-(5-(hydroxymethyl)-5,6-dihydrobenzo[f]tetrazolo[1,5-d][1,4]oxazepin-8-yl)-4-methylbenzamide]	10.9
C[C@@H]1Cn2cnnc2-c2cccc(NC(=O)c3cc(-n4cnc(C5CC5)c4)ccn3)c2O1 [Example 52, (R)-4-(4-cyclopropyl-1H-imidazol-1-yl)-N-(6-methyl-5,6-dihydrobenzo[f][1,2,4]triazolo[4,3-d][1,4]oxazepin-8-yl)picolinamide]	5.9
Cc1cc(F)c(C(=O)Nc2cccc3c2OC[C@H](CF)n2nnnc2-3)cc1-n1cnc(C2CC2)c1 [Example 26, (R)-5-(4-cyclopropyl-1H-imidazol-1-yl)-2-fluoro-N-(5-(fluoromethyl)-5,6-dihydrobenzo[f]tetrazolo[1,5-d][1,4]oxazepin-8-yl)-4-methylbenzamide]	8
Cc1cc(F)c(C(=O)Nc2cccc3c2OCC2(CC2)n2cnnc2-3)cc1-n1cnc(C2CC2)c1 [Example 10, 5-(4-cyclopropyl-1H-imidazol-1-yl)-2-fluoro-4-methyl-N-(6H-spiro[benzo[f][1,2,4]triazolo[4,3-d][1,4]oxazepine-5,1′-cyclopropan]-8-yl)benzamide]	0.5
Cc1cc(F)c(C(=O)Nc2cccc3c2OC[C@@H](CF)n2cnnc2-3)cc1-n1cnc(C2CC2)c1 [Example 28, (S)-5-(4-cyclopropyl-1H-imidazol-1-yl)-2-fluoro-N-(5-(fluoromethyl)-5,6-dihydrobenzo[f][1,2,4]triazolo[4,3-d][1,4]oxazepin-8-yl)-4-methylbenzamide]	4.5
Cc1cc(F)c(C(=O)Nc2cccc3c2OC[C@H](CF)n2cnnc2-3)cc1-n1cnc(C2CC2)c1 [Example 32, (R)-5-(4-cyclopropyl-1H-imidazol-1-yl)-2-fluoro-N-(5-(fluoromethyl)-5,6-dihydrobenzo[f][1,2,4]triazolo[4,3-d][1,4]oxazepin-8-yl)-4-methylbenzamide]	3.1
